Results taken from US11753445B2, “Therapeutic peptides” (COHBAR, INC., priority 2016, dated 2023).
Peptide text beside a SMILES is read from it.

Legend:
3T3-L1 Adipocytes = assay: Free fatty acid levels in cultured mouse 3T3-L1 adipocytes, isoproterenol stimulated (Example 2); type: cell-based; conditions: test peptides 25 μM; isoproterenol 1 nM
Procedure: Mouse 3T3-L1 cells were seeded at a density between 1,000-20,000 cells per well on 96-well, 48-well, or 24-well plates in Pre-adipocyte Medium (Zen-Bio, Durham, N.C.) and grown to confluence at 37° C. in a humidified atmosphere of 5% CO2/95% air. Two days after confluence, cells were placed in Adipocyte Differentiation Medium (Zen-Bio, Durham, N.C.) and cultured for three additional days at 37° C. in a humidified atmosphere of 5% CO2/95% air. The culture media was then replaced with Adipocyte Maintenance Medium (Zen-Bio) and the cells were maintained for an additional 9-14 days at 37° C. in a humidified atmosphere of 5% CO2/95% air with partial medium replacement every other day. Following 12-17 days of differentiation, test peptides were added at a final concentration of 25 μM and incubated for 18-20 hours in Adipocyte Maintenance Medium at 37° C. in a humidified atmosphere of 5% CO2/95%. After 18-20 hours, the media was exchanged with fresh Adipocyte Maintenance Medium containing test peptides and incubated for 1 h at 37° C. in a humidified atmosphere of 5% CO2/95%. After 1 h media was exchanged with Assay Buffer (Zen-Bio) containing isoproterenol (1 nM) (added to all samples except untreated controls) and the test peptides. Cells were incubated for a further 3 hours at 37° C. in a humidified atmosphere of 5% CO2/95%. Free fatty acid concentrations in the media were determined using a Free Fatty Acid Assay Kit (Zen-Bio) according to the manufacturer's instructions using a plate reader (540 nm).
Absorbance values were corrected for untreated background and expressed relative to isoproterenol treated cells. Treatment with isoproterenol (1 nM) alone was used as the free fatty acid level stimulatory control. The relative standard deviation of the isoproterenol control was <10%. […] Free fatty acid levels for insulin (100 nM) treatment were <5% of the isoproterenol control value.

[1] = Stability in mouse plasma, peptides 10 uM (Example 15); type: in vitro ADME; conditions: mouse plasma 37° C., peptide 10 uM; for remaining at 0.25 h, 10 uM / remaining at 0.5 h, 10 uM / remaining at 1 h, 10 uM / remaining at 2 h, 10 uM / remaining at 3 h, 10 uM: pooled mouse plasma; for remaining at 0.25 h, 10 uM: 15 min, read-out: % Remaining at Each Time Point: 15 min; for remaining at 0.5 h, 10 uM: 30 min, read-out: % Remaining at Each Time Point: 30 min; for remaining at 1 h, 10 uM: 60 min, read-out: % Remaining at Each Time Point: 60 min; for remaining at 2 h, 10 uM: 120 min, read-out: % Remaining at Each Time Point: 120 min; for remaining at 3 h, 10 uM: 180 min, read-out: % Remaining at Each Time Point: 180 min
Procedure: Peptides (10 uM) were incubated in pooled mouse plasma at 37° C. and samples were removed and immediately analyzed for the concentration of intact peptide by LC/MS/MS over the course of 3 hours. The percent of peptide remaining in plasma at each time point was calculated relative to the initial peak area (Table 13).

Compound	Free Fatty Acid Levels in 3T3-L1 Adipocytes Expressed as a Percent of Isoproterenol Control: Percent of Control Value (3T3-L1 Adipocytes) [%]	% Remaining at Each Time Point: 0 min [1] [%]	remaining at 0.25 h, 10 uM [1] [%]	remaining at 0.5 h, 10 uM [1] [%]	remaining at 1 h, 10 uM [1] [%]	remaining at 2 h, 10 uM [1] [%]	remaining at 3 h, 10 uM [1] [%]
CC[C@H](C)[C@H](NC(=O)[C@H](Cc1ccc(O)cc1)NC(=O)CNC(=O)[C@H](CCSC)NC(=O)[C@H](CCC(=O)O)NC(=O)[C@H](CCC(N)=O)NC(=O)[C@H](Cc1c[nH]c2ccccc12)NC(=O)C(C)(C)NC(=O)[C@@H](N)CCSC)C(=O)N[C@@H](Cc1ccccc1)C(=O)N[C@@H](Cc1ccc(O)cc1)C(=O)N1CCC[C@H]1C(=O)N[C@@H](CCCNC(=N)N)C(=O)N[C@@H](CCCCN)C(=O)N[C@@H](CC(C)C)C(=O)N[C@@H](CCCNC(=N)N)C(=O)O [compound 118] (HELM PEPTIDE1{M.[Aib].W.Q.E.M.G.Y.I.F.Y.P.R.K.L.R}$$$$V2.0)	84.6						
H-MRWNEMGYIFYPRKLR-OH [compound 127]	55.6						
CC[C@H](C)[C@H](NC(=O)[C@H](Cc1ccc(O)cc1)NC(=O)CNC(=O)[C@H](C)NC(=O)[C@H](CCC(=O)O)NC(=O)[C@H](CCC(N)=O)NC(=O)[C@H](Cc1c[nH]c2ccccc12)NC(=O)[C@H](CCCNC(=N)N)NC(=O)[C@@H](N)CCC(=O)O)C(=O)N[C@@H](Cc1ccccc1)C(=O)N[C@@H](Cc1ccc(O)cc1)C(=O)N1CCC[C@H]1C(=O)N[C@@H](CCCNC(=N)N)C(=O)N[C@@H](CCCCN)C(=O)N[C@@H](CC(C)C)C(=O)N[C@H](C)C(=O)O [compound 234] (HELM PEPTIDE1{E.R.W.Q.E.A.G.Y.I.F.Y.P.R.K.L.[dA]}$$$$V2.0)	73.8						
Ac-ERWQEMGYIFYPRKLR-NH2 [compound 183]	81.6						
CC[C@H](C)[C@H](NC(=O)[C@H](Cc1ccc(O)cc1)NC(=O)CNC(=O)[C@H](CCC(=O)O)NC(=O)[C@H](CCC(=O)O)NC(=O)[C@H](CCC(N)=O)NC(=O)[C@H](Cc1c[nH]c2ccccc12)NC(=O)[C@H](CCCNC(=N)N)NC(=O)[C@@H](C)N)C(=O)N[C@@H](Cc1ccccc1)C(=O)N[C@@H](Cc1ccc(O)cc1)C(=O)N1CCC[C@H]1C(=O)N[C@@H](CCCNC(=N)N)C(=O)N[C@@H](CCCCN)C(=O)N[C@@H](CC(C)C)C(=O)N[C@@H](C)C(=O)O [compound 230] (HELM PEPTIDE1{[dA].R.W.Q.E.E.G.Y.I.F.Y.P.R.K.L.A}$$$$V2.0)	94.5						
CC[C@H](C)[C@H](NC(=O)[C@H](Cc1ccc(O)cc1)NC(=O)CNC(=O)[C@H](CCSC)NC(=O)[C@H](CCC(=O)O)NC(=O)[C@@H](C)NC(=O)[C@H](Cc1c[nH]c2ccccc12)NC(=O)[C@H](CCCNC(=N)N)NC(=O)[C@@H](N)CCSC)C(=O)N[C@@H](Cc1ccccc1)C(=O)N[C@@H](Cc1ccc(O)cc1)C(=O)N1CCC[C@H]1C(=O)N[C@@H](CCCNC(=N)N)C(=O)N[C@@H](CCCCN)C(=O)N[C@@H](CC(C)C)C(=O)N[C@@H](CCCNC(=N)N)C(=O)O [compound 139] (HELM PEPTIDE1{M.R.W.[dA].E.M.G.Y.I.F.Y.P.R.K.L.R}$$$$V2.0)	58.1						
H-MRWQEMGYIFYPKKLR-OH [compound 123]	58.8						
Ac-MRWQEMAYIFYPRKLR-NH2 [compound 28]	35.5						
CC[C@H](C)[C@H](NC(=O)[C@H](Cc1ccc(O)cc1)NC(=O)CNC(=O)[C@H](CCSC)NC(=O)[C@H](CCC(=O)O)NC(=O)[C@H](CCC(N)=O)NC(=O)[C@H](Cc1c[nH]c2ccccc12)NC(=O)C(C)(C)NC(=O)[C@@H](N)CCSC)C(=O)N[C@@H](Cc1ccccc1)C(=O)N[C@@H](Cc1ccc(O)cc1)C(=O)N1CCC[C@H]1C(=O)N[C@@H](CCCNC(=N)N)C(=O)N[C@@H](CCCCN)C(=O)N[C@@H](CC(C)C)C(=O)N[C@@H](CCCNC(=N)N)C(N)=O [compound 119] (HELM PEPTIDE1{M.[Aib].W.Q.E.M.G.Y.I.F.Y.P.R.K.L.R.[am]}$$$$V2.0)	89.2						
CC[C@H](C)[C@@H]1NC(=O)[C@H](Cc2ccc(O)cc2)NC(=O)CNC(=O)[C@@H](NC(=O)[C@H](CCC(=O)O)NC(=O)[C@H](CCC(N)=O)NC(=O)[C@H](Cc2c[nH]c3ccccc23)NC(=O)[C@H](CCCNC(=N)N)NC(=O)[C@@H](N)CCSC)CCC(=O)NCCCC[C@@H](C(=O)N[C@@H](CCCNC(=N)N)C(=O)N[C@@H](CCCCN)C(=O)N[C@@H](CC(C)C)C(=O)N[C@@H](CCCNC(=N)N)C(=O)O)NC(=O)[C@H](Cc2ccc(O)cc2)NC(=O)[C@H](Cc2ccccc2)NC1=O [compound 221] (HELM PEPTIDE1{M.R.W.Q.E.E.G.Y.I.F.Y.K.R.K.L.R}$PEPTIDE1,PEPTIDE1,6:R3-12:R3$$$V2.0)	25.5						
CC[C@H](C)[C@H](NC(=O)[C@H](Cc1ccc(O)cc1)NC(=O)CNC(=O)[C@H](CCSC)NC(=O)[C@H](CCC(=O)O)NC(=O)[C@H](CCC(N)=O)NC(=O)[C@H](Cc1c[nH]c2ccccc12)NC(=O)[C@H](CCCNC(=N)N)NC(=O)[C@H](CCSC)NC(C)=O)C(=O)N[C@@H](Cc1ccccc1)C(=O)N[C@@H](Cc1ccc(O)cc1)C(=O)N1CCC[C@H]1C(=O)N[C@@H](CCCNC(=N)N)C(=O)N[C@@H](CCCCN)C(=O)N[C@@H](CC(C)C)C(=O)N[C@H](C)C(N)=O [compound 167] (HELM PEPTIDE1{[ac].M.R.W.Q.E.M.G.Y.I.F.Y.P.R.K.L.[dA].[am]}$$$$V2.0)	70.9						
CC[C@H](C)[C@H](NC(=O)[C@H](Cc1ccc(O)cc1)NC(=O)CNC(=O)[C@H](CCSC)NC(=O)[C@H](CCC(=O)O)NC(=O)[C@H](CCC(N)=O)NC(=O)[C@@H](C)NC(=O)[C@H](CCCNC(=N)N)NC(=O)[C@H](CCSC)NC(C)=O)C(=O)N[C@@H](Cc1ccccc1)C(=O)N[C@@H](Cc1ccc(O)cc1)C(=O)N1CCC[C@H]1C(=O)N[C@@H](CCCNC(=N)N)C(=O)N[C@@H](CCCCN)C(=O)N[C@@H](CC(C)C)C(=O)N[C@@H](CCCNC(=N)N)C(N)=O [compound 154] (HELM PEPTIDE1{[ac].M.R.[dA].Q.E.M.G.Y.I.F.Y.P.R.K.L.R.[am]}$$$$V2.0)	95.7						
H-MRWEEMGYIFYPRKLR-OH [compound 171]	45.9						
Ac-LKWQEMGYIFYPRLKR-NH2 [compound 114]	78.4						
H-RWQEENYIFYPR-OH [compound 258]		100	63.2	53.5	36.3	30.3	21.7
H-RWQEENYIAEPR-OH [compound 261]		100	85	73.4	69.3	68.1	73.7
H-RWQEEQYIFYPR-OH [compound 263]		100	80.7	68.6	46.9	40.5	30.8
H-RWQEENYIFEPR-OH [compound 259]		100	82.2	65.2	42.2	32.8	34.8
H-RWQEMQYIFEPR-OH [compound 254]		100	52.4	33.3	30.3	24	18.1
H-RWQEMQYIAYPR-OH [compound 255]		100	78.3	62.6	40.9	28.7	19.6
